Patent US20080199480A1, “Methods for Identifying Risk of Type II Diabetes and Treatments Thereof” (SEQUENOM, INC., priority 2004, published 2008)

T1: EPHA3 (Homo sapiens, UniProt P29320)
T1 construct: human EPHA3 intracellular domain (amino acids 571-986) containing juxtamembrane, kinase and SAM regions; 6xHis; made in house; host or cells: E. coli (Rosetta DE cells)
T1 sequence (P29320 571-983 limits assumed): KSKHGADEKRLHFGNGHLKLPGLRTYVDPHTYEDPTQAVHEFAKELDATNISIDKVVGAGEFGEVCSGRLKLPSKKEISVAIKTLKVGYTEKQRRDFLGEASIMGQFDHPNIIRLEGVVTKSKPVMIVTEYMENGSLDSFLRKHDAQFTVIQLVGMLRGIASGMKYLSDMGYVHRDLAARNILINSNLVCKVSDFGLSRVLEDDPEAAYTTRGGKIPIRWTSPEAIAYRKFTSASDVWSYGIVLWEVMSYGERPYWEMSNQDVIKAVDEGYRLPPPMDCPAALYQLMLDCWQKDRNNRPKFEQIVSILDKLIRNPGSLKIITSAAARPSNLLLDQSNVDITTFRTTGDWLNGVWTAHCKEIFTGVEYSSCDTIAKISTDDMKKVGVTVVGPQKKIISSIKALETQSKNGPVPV

T2: EPHA3 on differentiated 3T3-L1 cells (mouse) (UniProt P29319)
T2 sequence (looked up): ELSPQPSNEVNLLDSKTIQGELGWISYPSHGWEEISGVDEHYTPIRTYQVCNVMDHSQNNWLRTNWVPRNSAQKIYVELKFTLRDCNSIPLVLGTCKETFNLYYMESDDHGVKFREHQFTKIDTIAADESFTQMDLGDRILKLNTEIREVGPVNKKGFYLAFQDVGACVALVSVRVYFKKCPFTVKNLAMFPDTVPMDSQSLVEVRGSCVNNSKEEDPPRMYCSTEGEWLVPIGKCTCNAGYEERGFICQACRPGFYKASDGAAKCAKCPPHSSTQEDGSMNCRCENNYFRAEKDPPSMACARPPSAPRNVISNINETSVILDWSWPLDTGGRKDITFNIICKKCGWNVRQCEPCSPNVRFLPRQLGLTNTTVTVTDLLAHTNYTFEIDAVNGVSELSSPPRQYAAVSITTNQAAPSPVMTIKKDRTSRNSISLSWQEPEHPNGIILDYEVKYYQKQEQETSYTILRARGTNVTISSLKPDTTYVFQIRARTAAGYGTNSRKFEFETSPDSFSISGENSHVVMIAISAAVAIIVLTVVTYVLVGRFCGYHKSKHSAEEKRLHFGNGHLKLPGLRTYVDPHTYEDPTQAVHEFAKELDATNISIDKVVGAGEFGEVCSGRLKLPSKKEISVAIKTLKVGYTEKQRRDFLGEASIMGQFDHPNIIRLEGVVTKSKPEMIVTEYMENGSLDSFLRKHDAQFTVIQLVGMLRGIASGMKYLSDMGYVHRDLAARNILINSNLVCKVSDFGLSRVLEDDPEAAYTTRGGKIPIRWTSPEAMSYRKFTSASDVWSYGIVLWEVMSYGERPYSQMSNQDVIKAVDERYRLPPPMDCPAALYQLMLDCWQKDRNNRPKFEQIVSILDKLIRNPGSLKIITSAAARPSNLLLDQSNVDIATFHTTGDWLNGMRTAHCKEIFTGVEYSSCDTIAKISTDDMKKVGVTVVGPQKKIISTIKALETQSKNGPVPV


What was measured:
EPHA3 = biological target: T1, EPHA3; experiment: DELFIA EPHA3 kinase assay (phosphorylation of biotin-Src-peptide); assay type: biochemical; details: EPHA3 30 nM, biotin-Src-peptide 1 μM, ATP 30 μM, 3 hr incubation at 37° C., read-out: EPHA3 Potency IC50
Procedure: An EPHA3 enzyme construct comprised the human EPHA3 intracellular domain (amino acids 571-986) containing juxtamembrane, kinase and SAM regions. It was expressed in E. coli as a recombinant protein. 6×His and NusA expression tags were used in pET28a and pET44a vectors (Novagen), respectively. Expression was carried out in Rosetta DE cells with IPTG induction followed by recombinant protein purification on a Ni-column using imidazole elution buffer.
The ATP concentrations are selected near the Michaelis-Menten constant (KM) for each individual kinase. Dose-response experiments are performed at ten different inhibitor concentrations in a 384-well plate format. The data are fitted to a standard four-parameter equation listed below:
Y=Min+(Max−Min)/(1+XIC50)̂H
These parameters are obtained by nonlinear regression algorithm built into ActivityBase software (available from ID Business Solutions Ltd., of Guildford, Surrey, UK).
The DELFIA method is a solid-phase, non-homogeneous system that measures enzymatic activity by quantitating the phosphorylation of an immobilized substrate. The compound names are provided in the “Compositions Comprising Diabetes-Directed Molecules” section.
In this experiment, EPHA3 (30 nM) was incubated with biotinylated substrate, biotin-Src-peptide (1 μM)+ATP (30 μM) in an assay medium (10 mM HEPES pH 7.4, 2 mM MgCl2, 10 μM MnCl2, 1.0 mM DTT, 0.01% Pluronic F-127) in the presence of test compounds. After 3 hr incubation at 37° C., the reaction was stopped (5 mM EDTA) and the substrate phosphorylation was quantified in DELFIA assay using Eu-labeled anti-phosphotyrosine antibody.

Differentiated 3T3-L1 [1] = experiment: Glucose uptake assay (insulin-mediated uptake of radioactive glucose); assay type: cell-based, mouse; details: 100 nM insulin for 10 minutes
Text: One of the many responses of adipocytes and muscle cells after exposure, to insulin is the transport of glucose intracellularly. This transport is mediated by GLUT4, an insulin-regulatable glucose transporter. Insulin binding to insulin receptors on the cell surface results in autophosphorylation and activation of the intrinsic tyrosine kinase activity of the insulin receptor. Phosphorylated tyrosine residues on the insulin receptor and its endogenous targets activate several intracellular signaling pathways that eventually lead to the translocation of GLUT4 from intracellular stores to the extracellular membrane. Cells were plated in 6-well dishes, and grown to confluency. Cells were then differentiated with DMEM plus 10% fetal calf serum (FCS), 10 ug/mL insulin, 390 ng/mL dexamethasone and 112 ug/mL isobutylmethylxanthine for 2 days. After 2 days of differentiation, media was changed to maintenance media DMEM plus 10% FCS and 5 ug/mL insulin. Media was changed every 2 days thereafter. Cells were assayed for insulin-mediated glucose uptake 10 days after differentiation. On the day of the assay, cells were washed once with PBS, and serum starved by adding 2 mL of DMEM plus 2 mg/mL BSA for 3 hours. During serum starvation, recombinant rat ephrin-A5/Fc chimeric ligand was preclustered. […] Lysates were read in a Wallac 1450 Microbeta Liquid Scintillation and Luminescence Counter.

[2] = system: resistin mRNA in differentiated 3T3-L1 cells; experiment: Quantitative assessment of mResistin levels (mRNA, PCR); assay type: cell-based, mouse; details: 10 nM insulin for 2 hours
Procedure: Resistin is a secreted factor specifically expressed in white adipocyte. […] Elevated levels of resistin have been measured in genetically obese, and high fat fed obese mice. It is therefore thought that resistin contributes to peripheral tissue insulin unresponsiveness, one of the pathological hallmarks of diabetes.
3T3-L1 cells were differentiated for 3 days as previously described and maintained for three days prior to splitting. At day 5 post-differentiation, differentiated cells were plated in 10 cm dish at a cell density of 3×10^6 cells. Cells were then serum starved on day 7 after initiation of differentiation. On day 8, cells were treated with pre-clustered recombinant rat ephrin-A5/Fc chimera as described above for 10 min and treated with 10 nM insulin for 2 hours. Cells were harvested, mRNA extracted using magnetic DYNAL beads and reverse transcribed to cDNA using. Superscript First-Strand Synthesis as described by the manufacturer. The following primers: forward primer; 5′ GTCGCTTCCTGATGTCGGTCA 3′, and reverse primer, 5′ GGCCAGCCTGGACTATATGAG 3′, were used in 15 uL PCR reaction using 55 deg annealing temperature and 30 cycles of amplification.

Differentiated 3T3-L1 [3] = experiment: Triacylglycerol (TG) assay; assay type: cell-based, mouse; details: 100 nM insulin, 2 hours
Text: A direct metabolic consequence of glucose transport intracellularly is its incorporation into the fatty acid and glycerol moieties of triacylglycerol (TG). TGs are highly concentrated stores of metabolic energy, and are the major energy reservoir of cells. In mammals, the major site of accumulation of triacylglycerols is the cytoplasm of adipose cells. Adipocytes are specialized for the synthesis, and storage of TG, and for their mobilization into fuel molecules that are transported to other tissues through the bloodstream. It is likely that changes in the transport of glucose intracellularly can affect cytoplasmic stores of triacylglycerols.
Cells were plated in 6-well dishes, and grown to confluency. When cells reached confluency, cells were differentiated with DMEM plus 10% fetal calf serum (FCS), 10 ug/mL insulin, 390 ng/mL dexamethasone and 112 ug/mL isobutylmethylxanthine for 2 days. After 2 days of differentiation, media was changed to maintenance media DMEM plus 10%. FCS and […] insulin. On the day of the assay (day 9 post-differentiation), cells were washed once with PBS, and serum starved by adding 2 mL of DMEM plus 2 mg/ml BSA for 3 hours. During serum starvation, recombinant rat ephrin-A5/Fc chimeric ligand was preclustered. […] The assay was read at 500-550 nm.

[4] = biological target: T2, EPHA3 on differentiated 3T3-L1 cells (mouse); experiment: cell-based or functional assay

Row | IC50 (EPHA3) [nM] | Molecule | also measured
1 | 2000 | COc1cc2ncnc(Nc3ccc(Cl)c(Cl)c3)c2cc1OC [sqnm-1] | –
2 | 400 | COc1cc2c(Nc3ccc(Cl)c(Cl)c3)ncnc2cc1OCC1CN(C)CCO1 (stereo not drawn) [sqnm-11] | –
3 | 200 | COc1cc2c(Nc3ccc(Cl)cc3F)ncnc2cc1OCC1CN(C)CCO1 (stereo not drawn) [sqnm-14] | –
4 | 800 | COc1cc2c(Nc3ccc(Cl)cc3F)ncnc2cc1OCC1CN(C(C)C)CCO1 (stereo not drawn) [sqnm-15] | –

Second part, the molecule before the results:

Row | Molecule | IC50 (EPHA3) [nM] | also measured
5 | COc1cc2ncnc(Nc3cccc(Cl)c3)c2cc1OC [sqnm-4] | 4500 | –
6 | COc1cc2ncnc(Nc3ccc(Cl)cc3F)c2cc1OC [sqnm-5] | 500 | –
7 | COc1cc2c(Nc3ccc(Cl)cc3F)ncnc2cc1OCC1CCN(C)CC1 [sqnm-7] | 900 | –
8 | COc1cc2c(Nc3cc(Cl)ccc3F)ncnc2cc1OCC1CCN(C)CC1 [sqnm-8] | 2000 | –
9 | COc1cc2c(Nc3ccc(Cl)c(Cl)c3)ncnc2cc1OCC1CN(C2CCCC2)CCO1 (stereo not drawn) [sqnm-9] | 200 | –
10 | COc1cc2c(Nc3ccc(Cl)cc3F)ncnc2cc1OCC1CN(C2CCCC2)CCO1 (stereo not drawn) [sqnm-10] | 300 | –
11 | COc1cc2c(Nc3ccc(Cl)c(Br)c3)ncnc2cc1OCC1CN(C)CCO1 (stereo not drawn) [sqnm-12] | 200 | –
12 | Oc1cccc(Nc2ncnc3ccccc23)c1 [sqnm-16] | 11000 | –
13 | insulin: porcine insulin used to stimulate differentiated 3T3-L1 cells | – | increase in uptake of radioactive glucose (Differentiated 3T3-L1 [1]): 22 fold; resistin mRNA levels [2]: decrease; increase in TG stores (Differentiated 3T3-L1 [3]): about 23%
14 | recombinant rat ephrin-A5/Fc chimeric ligand, preclustered with anti-human IgG, Fc γ fragment specific antibody (Fc fusion, part only; not given: Fc part, UniProt P97605 21-203, looked up, part only) chain, part: QDPGSKVVADRYAVYWNSSNPRFQRGDYHIDVCINDYLDVFCPHYEDSVPEDKTERYVLYMVNFDGYSACDHTSKGFKRWECNRPHSPNGPLKFSEKFQLFTPFSLGFEFRPGREYFYISSAIPDNGRRSCLKLKVFVRPTNSCMKTIGVRDRVFDVNDKVENSLEPADDTVHESAEPSRGEN | – | insulin-mediated triacylglycerol (TG) stores, differentiated 3T3-L1, 10 min pretreatment with ephrin-A5 [4]: 10 % decrease; uptake of radioactive glucose, insulin-treated differentiated 3T3-L1, 10 min pretreatment with pre-clustered ephrin-A5 [4]: 20 % decrease; uptake of radioactive glucose, insulin-treated differentiated 3T3-L1, 90 min preincubation with pre-clustered ephrin-A5 [4]: 15 % decrease
